From the supplement of paper PMC10307832

Experiments:
Test in all cases: relative viability (nuclei count vs DMSO), 5 days (fraction); higher = more cells survive
PC-14 = tested on: PC-14
Outline: (§1)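 Lung cancer cell lines in 1536-well plates got either a single drug or a fixed anchor-drug dose together with five library-drug doses (not always all listed) in √10 steps, by pin tool, on the day after seeding. Nuclei were counted after 5 days, and relative viability is the treated-to-vehicle ratio of nuclei counts. Values are medians of duplicate plates.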

H3255 = tested on: H3255
Outline: as §1

NCI-H520 = tested on: NCI-H520
Outline: as §1

NCI-H2405 = tested on: NCI-H2405
Outline: as §1

NCI-H23 = tested on: NCI-H23
Outline: as §1

NCI-H647 = tested on: NCI-H647
Outline: as §1

NCI-H1666 = tested on: NCI-H1666
Outline: as §1

NCI-H1915 = tested on: NCI-H1915
Outline: as §1

NCI-H2347 = tested on: NCI-H2347
Outline: as §1

NCI-H2126 = tested on: NCI-H2126
Outline: as §1

EPLC-272H = tested on: EPLC-272H
Outline: as §1

LC-2-ad = tested on: LC-2-ad
Outline: as §1

RERF-LC-KJ = tested on: RERF-LC-KJ
Outline: as §1

NCI-H661 = tested on: NCI-H661
Outline: as §1

NCI-H650 = tested on: NCI-H650
Outline: as §1

HCC-78 = tested on: HCC-78
Outline: as §1

201T = tested on: 201T
Outline: as §1

HCC-827 = tested on: HCC-827
Outline: as §1

COR-L 105 = tested on: COR-L 105
Outline: as §1

NCI-H2087 = tested on: NCI-H2087
Outline: as §1

ChaGo-K-1 = tested on: ChaGo-K-1
Outline: as §1

LCLC-97TM1 = tested on: LCLC-97TM1
Outline: as §1

`CCN(CC)CCCCNc1ncc2cc(-c3cc(OC)cc(OC)c3)c(NC(=O)NC(C)(C)C)nc2n1` + Nc1nc2[nH]cc(CCc3ccc(C(=O)N[C@@H](CCC(=O)O)C(=O)O)cc3)c2c(=O)[nH]1 [Pemetrexed] (partner 0.2 µM) gave a relative viability (PC-14; first compound 0.01 µM) of 0.123, a relative viability (PC-14; first compound 0.03162 µM) of 0.117 and a relative viability (PC-14; first compound 0.1 µM) of 0.184. It also gave a relative viability (PC-14; first compound 0.3162 µM) of 0.139, a relative viability (PC-14; first compound 1 µM) of 0.141 and a relative viability (H3255; first compound 0.01 µM) of 0.626. For the same compound, the relative viability (H3255; first compound 0.03162 µM) was 0.568, the relative viability (H3255; first compound 0.1 µM) was 0.615 and the relative viability (H3255; first compound 0.3162 µM) was 0.632. The relative viability (H3255; first compound 1 µM) was 0.513, the relative viability (NCI-H520; first compound 0.01 µM) was 0.8 and the relative viability (NCI-H520; first compound 0.03162 µM) was 0.694. The relative viability (NCI-H520; first compound 0.1 µM) was 0.555, the relative viability (NCI-H520; first compound 0.3162 µM) was 0.511 and the relative viability (NCI-H520; first compound 1 µM) was 0.314. For the same compound, the relative viability (NCI-H2405; first compound 0.01 µM) was 0.994, the relative viability (NCI-H2405; first compound 0.03162 µM) was 1.06 and the relative viability (NCI-H2405; first compound 0.1 µM) was 1.14. For the same compound, the relative viability (NCI-H2405; first compound 0.3162 µM) was 1.3, the relative viability (NCI-H2405; first compound 1 µM) was 1.04 and the relative viability (NCI-H23; first compound 0.01 µM) was 0.666. It also gave a relative viability (NCI-H23; first compound 0.03162 µM) of 0.566, a relative viability (NCI-H23; first compound 0.1 µM) of 0.854 and a relative viability (NCI-H23; first compound 0.3162 µM) of 0.778. The relative viability (NCI-H23; first compound 1 µM) was 0.646, the relative viability (NCI-H647; first compound 0.01 µM) was 0.188 and the relative viability (NCI-H647; first compound 0.03162 µM) was 0.127. For the same compound, the relative viability (NCI-H647; first compound 0.1 µM) was 0.157, the relative viability (NCI-H647; first compound 0.3162 µM) was 0.161 and the relative viability (NCI-H647; first compound 1 µM) was 0.136. The relative viability (NCI-H1666; first compound 0.01 µM) was 0.814, the relative viability (NCI-H1666; first compound 0.03162 µM) was 0.796 and the relative viability (NCI-H1666; first compound 0.1 µM) was 0.783. The relative viability (NCI-H1666; first compound 0.3162 µM) was 0.942, the relative viability (NCI-H1666; first compound 1 µM) was 0.808 and the relative viability (NCI-H1915; first compound 0.01 µM) was 0.511. For the same compound, the relative viability (NCI-H1915; first compound 0.03162 µM) was 0.521, the relative viability (NCI-H1915; first compound 0.1 µM) was 0.558 and the relative viability (NCI-H1915; first compound 0.3162 µM) was 0.518. It also gave a relative viability (NCI-H1915; first compound 1 µM) of 0.445, a relative viability (NCI-H2347; first compound 0.01 µM) of 0.419 and a relative viability (NCI-H2347; first compound 0.03162 µM) of 0.555. It also gave a relative viability (NCI-H2347; first compound 0.1 µM) of 0.423, a relative viability (NCI-H2347; first compound 0.3162 µM) of 0.412 and a relative viability (NCI-H2347; first compound 1 µM) of 0.382. The relative viability (NCI-H2126; first compound 0.01 µM) was 0.646, the relative viability (NCI-H2126; first compound 0.03162 µM) was 0.764 and the relative viability (NCI-H2126; first compound 0.1 µM) was 0.644. The relative viability (NCI-H2126; first compound 0.3162 µM) was 0.661, the relative viability (NCI-H2126; first compound 1 µM) was 0.749 and the relative viability (EPLC-272H; first compound 0.01 µM) was 0.386. It also gave a relative viability (EPLC-272H; first compound 0.03162 µM) of 0.271, a relative viability (EPLC-272H; first compound 0.1 µM) of 0.334 and a relative viability (EPLC-272H; first compound 0.3162 µM) of 0.317. The relative viability (EPLC-272H; first compound 1 µM) was 0.26, the relative viability (LC-2-ad; first compound 0.01 µM) was 0.293 and the relative viability (LC-2-ad; first compound 0.03162 µM) was 0.267. The relative viability (LC-2-ad; first compound 0.1 µM) was 0.272, the relative viability (LC-2-ad; first compound 0.3162 µM) was 0.264 and the relative viability (LC-2-ad; first compound 1 µM) was 0.271. For the same compound, the relative viability (RERF-LC-KJ; first compound 0.01 µM) was 0.497, the relative viability (RERF-LC-KJ; first compound 0.03162 µM) was 0.487 and the relative viability (RERF-LC-KJ; first compound 0.1 µM) was 0.499. The relative viability (RERF-LC-KJ; first compound 0.3162 µM) was 0.428, the relative viability (RERF-LC-KJ; first compound 1 µM) was 0.514 and the relative viability (NCI-H661; first compound 0.01 µM) was 0.968. The relative viability (NCI-H661; first compound 0.03162 µM) was 0.886, the relative viability (NCI-H661; first compound 0.1 µM) was 0.961 and the relative viability (NCI-H661; first compound 0.3162 µM) was 0.986. The relative viability (NCI-H661; first compound 1 µM) was 0.95, the relative viability (NCI-H650; first compound 0.01 µM) was 0.877 and the relative viability (NCI-H650; first compound 0.03162 µM) was 0.842. For the same compound, the relative viability (NCI-H650; first compound 0.1 µM) was 1.04, the relative viability (NCI-H650; first compound 0.3162 µM) was 1.03 and the relative viability (NCI-H650; first compound 1 µM) was 0.948. It also gave a relative viability (HCC-78; first compound 0.01 µM) of 0.919, a relative viability (HCC-78; first compound 0.03162 µM) of 0.933 and a relative viability (HCC-78; first compound 0.1 µM) of 0.949. The relative viability (HCC-78; first compound 0.3162 µM) was 0.947, the relative viability (HCC-78; first compound 1 µM) was 0.89 and the relative viability (201T; first compound 0.01 µM) was 0.351. For the same compound, the relative viability (201T; first compound 0.03162 µM) was 0.315, the relative viability (201T; first compound 0.1 µM) was 0.331 and the relative viability (201T; first compound 0.3162 µM) was 0.349. It also gave a relative viability (201T; first compound 1 µM) of 0.313, a relative viability (HCC-827; first compound 0.01 µM) of 0.266 and a relative viability (HCC-827; first compound 0.03162 µM) of 0.261. It also gave a relative viability (HCC-827; first compound 0.1 µM) of 0.265, a relative viability (HCC-827; first compound 0.3162 µM) of 0.269 and a relative viability (HCC-827; first compound 1 µM) of 0.244. The relative viability (COR-L 105; first compound 0.01 µM) was 1.23, the relative viability (COR-L 105; first compound 0.03162 µM) was 1.12 and the relative viability (COR-L 105; first compound 0.1 µM) was 1.18. For the same compound, the relative viability (COR-L 105; first compound 0.3162 µM) was 1.47, the relative viability (COR-L 105; first compound 1 µM) was 1.05 and the relative viability (NCI-H2087; first compound 0.01 µM) was 0.716. It also gave a relative viability (NCI-H2087; first compound 0.03162 µM) of 0.637, a relative viability (NCI-H2087; first compound 0.1 µM) of 0.746 and a relative viability (NCI-H2087; first compound 0.3162 µM) of 0.645. For the same compound, the relative viability (NCI-H2087; first compound 1 µM) was 0.727, the relative viability (ChaGo-K-1; first compound 0.01 µM) was 0.269 and the relative viability (ChaGo-K-1; first compound 0.03162 µM) was 0.407. For the same compound, the relative viability (ChaGo-K-1; first compound 0.1 µM) was 0.267, the relative viability (ChaGo-K-1; first compound 0.3162 µM) was 0.272 and the relative viability (ChaGo-K-1; first compound 1 µM) was 0.265. For the same compound, the relative viability (LCLC-97TM1; first compound 0.01 µM) was 0.174, the relative viability (LCLC-97TM1; first compound 0.03162 µM) was 0.185 and the relative viability (LCLC-97TM1; first compound 0.1 µM) was 0.174. For the same compound, the relative viability (LCLC-97TM1; first compound 0.3162 µM) was 0.159 and the relative viability (LCLC-97TM1; first compound 1 µM) was 0.189.
